# Laboratory results taken from ChEMBL document CHEMBL1148930, “DNA polymerase beta lyase inhibitors from Maytenus putterlickoides” (J Nat Prod, 2004).
# Experiments:
# DNA polymerase beta = DNA polymerase beta (Rattus norvegicus, UniProt P06766); experiment: Inhibition of lyase activity of rat DNA polymerase beta after 30 mins by deoxyribose phosphate excision assay
# A549 [1] = experiment: Cytotoxicity against human A549 cells assessed as cell viability at 200 uM after 48 hrs by MTT assay relative to control; type: functional; settings: A549, 48 h, read-out: Activity
# A549 [2] = experiment: Cytotoxicity against human A549 cells assessed as cell viability at 62.5 uM after 48 hrs by MTT assay relative to control; type: functional; settings: A549, 48 h, read-out: Activity
# A549 [3] = experiment: Potentiation of methyl methanesulfonate-induced cytotoxicity against human A549 cells assessed as cell viability after 48 hrs by MTT assay relative to control; type: functional
Compound,IC50 (DNA polymerase beta) [µM],viability at 200 µM (A549 [1]) [%],viability at 62.5 µM (A549 [2]) [%],Activity (A549 [3]) [%]
C=C(COC(=O)c1ccc(O)cc1)[C@@H]1CC[C@]2(C)CC[C@]3(C)[C@H](C[C@@H](O)[C@@H]4[C@@]5(C)CCC(=O)C(C)(C)[C@@H]5CC[C@]43C)[C@@H]12,62.8,100,100,100
Oc1cc(O)c2c(c1)O[C@H](c1ccc(O)c(O)c1)[C@H](O)C2 [(-)-EPICATECHIN],18.5,100,100,86.6
